Data reported in patent publication EP0564248A1, “N-(2-hydroxyethyl)-N-bis(methylenephosphonic acid) and corresponding N-oxide thereof for high pH scale control” (Calgon Corporation, priority 1992, dated 1993).

Experiment: CaCO3 scale inhibition at pH 9 and 300X calcite saturation (% inhibition by calcium titration, Schwarzenbach method)
Procedure: PROCEDURE: Scaling water containing 250 mg/L of CO (-2)/(3) [formula] and 600 mg/L of alkalinity at a pH of 9.0 and 55°C was used to evaluate scale inhibition performance of test solutions over a 24 hr period. Test solutions were analyzed by withdrawing 10 g of test solution and adding it to the appropriate container through a 0.2 µ filter, titrating for calcium, and calculating % inhibition by the Schwarzenbach method.

SMILES: O=P(O)(O)CN(CCO)CP(=O)(O)O [Sample No. 1, N-(2-hydroxyethyl)-N-bis(methylenephosphonic acid)]
- scale inhibition (10% Excess Ca/Alk, 25ppm): 67.8%
- scale inhibition (10% Excess Ca/Alk, 50ppm): 85.6%
- scale inhibition (60°C, 50ppm): 82.6%
- scale inhibition (pH 9, 300X CaCO₃, 50ppm, 24hrs): 90.8%
- scale inhibition (pH 9, 300X CaCO₃, 50ppm, 4 days): 87.5%
